Results as given in the supplement of paper PMC11061612.

Experiments:
Assay in all cases: combination Emax (second highest fraction inhibited in the dose matrix, 72 h); higher = more inhibition; extreme values may be limits of the assay
A673 (Ewing's Sarcoma) = test system: A673 (Ewing's Sarcoma)
In short: (§1)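 After 24 hours at 37°C and 5% CO2 in 1536-well plates, cells in DMEM/F12 or RPMI plus 10% FBS received two-drug dose matrices for 72 hours. Viability came from CellTiter-Glo 2.0 luminescence and was scaled as inhibition, anchored at 0 by vehicle wells and at 1 by blank wells. Combination Emax is taken as the second-highest inhibition in the matrix, and Bliss excess as the observed combination effect less EA + EB − EA·EB, with EA and EB the single-agent effects.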

[1] = test system: BE-13 (T-Lymphoblastic Leukemia)
In short: as §1

[2] = test system: ESS-1 (Other Solid Carcinomas)
In short: as §1

[3] = test system: HuCCT1 (Biliary Tract Carcinoma)
In short: as §1

[4] = test system: LNZTA3WT4 (Low Grade Glioma)
In short: as §1

LOXIMVI (Melanoma) = test system: LOXIMVI (Melanoma)
In short: as §1

[5] = test system: NCI-H524 (Small Cell Lung Carcinoma)
In short: as §1

[6] = test system: OVCAR-5 (Ovarian Carcinoma)
In short: as §1

[7] = test system: SNU-16 (Gastric Carcinoma)
In short: as §1

[8] = test system: SNU-449 (Hepatocellular Carcinoma)
In short: as §1

[9] = test system: SW1710 (Bladder Carcinoma)
In short: as §1

[10] = test system: TGBC1TKB (Biliary Tract Carcinoma)
In short: as §1

[11] = test system: WSU-NHL (B-Cell Non-Hodgkin's Lymphoma)
In short: as §1

[12] = test system: YAPC (Pancreatic Carcinoma)
In short: as §1

SMILES | combination Emax (A673 (Ewing's Sarcoma)) | combination Emax [1] | combination Emax [2] | combination Emax [3] | combination Emax [4] | combination Emax (LOXIMVI (Melanoma)) | combination Emax [5] | combination Emax [6] | combination Emax [7] | combination Emax [8] | combination Emax [9] | combination Emax [10] | combination Emax [11] | combination Emax [12]
O=C(c1cc(Cc2n[nH]c(=O)c3ccccc23)ccc1F)N1CCN(C(=O)C2CC2)CC1 [Olaparib] + Cc1c2c(nn1C)CSCc1cc(n(C)n1)CSc1cc(c3ccccc3c1)OCCCc1c(C(=O)O)n(C)c3c-2c(Cl)ccc13 [AZD5991] (first compound max 10 µM, 7x7, partner max 1 µM) | 0.446 | 0.498 | 0.403 | 0.15 | 0.123 | 0.311 | 0.426 | 0.122 | 0.994 | 0.0781 | 0.119 | 0.157 | 0.797 | 0.104
Cc1nc(-c2cn3c(n2)-c2ccc(-c4cnn(C(C)(C)C(N)=O)c4)cc2OCC3)n(C(C)C)n1 [Taselisib] + O=C(Nc1ccc2[nH]nc(-c3ccncc3)c2c1)[C@@H]1CCN(CC(=O)N2CCN(c3ccc(-c4ncccn4)cc3)CC2)C1 [SCH772984] (first compound max 10 µM, 7x7, partner max 5 µM) | 0.705 | 0.373 | 0.923 | 0.839 | 0.66 | 1 | 0.411 | 0.846 | 0.82 | 0.445 | 0.422 | 0.663 | 0.97 | 0.701
C[C@@H](Oc1cc(-c2cnn(C3CCNCC3)c2)cnc1N)c1c(Cl)ccc(F)c1Cl [Crizotinib] + Cn1cnc2c(F)c(Nc3ccc(Br)cc3Cl)c(C(=O)NOCCO)cc21 [Selumetinib] (first compound max 10 µM, 7x7, partner max 10 µM) | 0.742 | 0.974 | 0.773 | 0.725 | 0.456 | 0.926 | 0.983 | 0.7 | 0.989 | 0.455 | 0.381 | 0.147 | 0.98 | 0.526
C=CCn1c(=O)c2cnc(Nc3ccc(N4CCN(C)CC4)cc3)nc2n1-c1cccc(C(C)(C)O)n1 [AZD1775] + CCc1c2c(nc3ccc(O)cc13)-c1cc3c(c(=O)n1C2)COC(=O)[C@]3(O)CC [SN-38] (first compound max 1 µM, partner max 0.3 µM) | 0.973 | 1 | 1 | 0.809 | 0.802 | 0.863 | 0.76 | 0.77 | 0.989 | 0.61 | 0.533 | 0.426 | 0.999 | 0.722
O=C(c1cc(Cc2n[nH]c(=O)c3ccccc23)ccc1F)N1CCN(C(=O)C2CC2)CC1 [Olaparib] + CN(CC[C@H](CSC1=CC=CC=C1)NC2=C(C=C(C=C2)S(=O)(=O)NC(=O)C3=CC=C(C=C3)N4CCC(CC4)[C@H](C5=CC=CC=C5C6=CC=C(C=C6)Cl)O)S(=O)(=O)C(F)(F)F)CCO [AZD4320] (first compound max 10 µM, 7x7, partner max 1 µM) | 0.948 | 0.983 | 0.787 | 0.193 | 0.168 | 0.447 | 0.755 | 0.182 | 0.691 | 0.11 | 0.265 | 0.366 | 0.674 | 0.11
C[C@@H](Nc1cc(F)cc(F)c1)c1cc(C(=O)N(C)C)cc2c(=O)cc(N3CCOCC3)oc12 [AZD8186] + CC(=O)c1c(C)c2cnc(Nc3ccc(N4CCNCC4)cn3)nc2n(C2CCCC2)c1=O [Palbociclib] (first compound max 10 µM, 7x7, partner max 10 µM) | 0.479 | 0.62 | 0.552 | 0.479 | 0.478 | 0.623 | 0.571 | 0.55 | 0.639 | 0.391 | 0.585 | 0.534 | 0.967 | 0.349
C[C@@H]1COCCN1c1cc(C2([S@](C)(=N)=O)CC2)nc(-c2ccnc3[nH]ccc23)n1 [AZD6738] + C1CC(C1)(C(=O)[O-])C(=O)[O-].N.N.[Pt+2] [Carboplatin] (first compound max 10 µM, 7x7, partner max 10 µM) | 0.781 | 0.737 | 0.98 | 0.683 | 0.806 | 0.619 | 0.687 | 0.75 |  | 0.227 | 0.429 | 0.302 | 0.849 | 0.369
Cc1c2c(nn1C)CSCc1cc(n(C)n1)CSc1cc(c3ccccc3c1)OCCCc1c(C(=O)O)n(C)c3c-2c(Cl)ccc13 [AZD5991] + CS(=O)(=O)CCNCc1ccc(-c2ccc3ncnc(Nc4ccc(OCc5cccc(F)c5)c(Cl)c4)c3c2)o1 [Lapatinib] (first compound max 1 µM, 7x7, partner max 10 µM) | 0.388 | 0.936 | 0.702 | 0.482 | 0.447 | 0.535 | 0.502 | 0.334 | 0.998 | 0.547 | 0.185 |  | 0.909 | 0.186
